Consider ten compounds from PubChem BioAssay (NCI).

Test systems include CAKI-1 renal; CCRF-CEM leukemia; HCT-116 colon; HL-60(TB) leukemia; HOP-62 NSCLC; KM12 colon; MDA-MB-231 breast; MDA-N; OVCAR-3 ovarian; OVCAR-8 ovarian; SF-268 CNS; SK-MEL-2 melanoma; SK-OV-3 ovarian; U251 CNS; HOP-92 NSCLC; UO-31 renal.
Holding throughout (test): DTP human tumour cell line panel, 48 h

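Test compounds were applied to cells in 96-well plates for 48 hours at 5 doses. TGI marks complete inhibition of growth.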

The TGI is the concentration giving total growth inhibition. Low values mean more potent growth arrest, high ones less potent growth arrest. With `CNNC1=NS(=O)(=O)c2cc(C(=O)OC)c(Cl)cc2S1`, the TGI in the assay with CAKI-1 renal, with CCRF-CEM leukemia, in the assay with HCT-116 colon, in the assay with HL-60(TB) leukemia, in the assay on HOP-62 NSCLC and in the assay with KM12 colon was greater than 10 µM in each case. In addition, the concentration for total growth inhibition (TGI) with MDA-MB-231 breast, in the assay with MDA-N, with OVCAR-3 ovarian, in the assay with OVCAR-8 ovarian, in the assay on SF-268 CNS and in the assay with SK-MEL-2 melanoma was greater than 10 µM in each case. Besides, the TGI in the assay with SK-OV-3 ovarian and in the assay with U251 CNS was greater than 10 µM in each case.
In the case of `Clc1ccc(OCc2nnc(CCCCCCCCc3nnc(COc4ccc(Cl)cc4)o3)o2)cc1`, the TGI with CAKI-1 renal was greater than 100 µM; in the assay on HCT-116 colon, 28.2 µM; with HOP-92 NSCLC it was greater than 100 µM; in the assay on KM12 colon, greater than 100 µM; with MDA-MB-231 breast, greater than 100 µM; in the assay on MDA-N, greater than 100 µM. Further, the TGI in the assay on OVCAR-3 ovarian, in the assay with SF-268 CNS, with SK-MEL-2 melanoma, in the assay on SK-OV-3 ovarian, in the assay on U251 CNS and in the assay on UO-31 renal was greater than 100 µM in each case.
As to `COc1cccc(N2CCc3c(C)c(C#N)c4nc5ccccc5n4c32)c1`, the TGI in the assay on CCRF-CEM leukemia, in the assay on HCT-116 colon, in the assay with HL-60(TB) leukemia, in the assay on HOP-62 NSCLC, in the assay on HOP-92 NSCLC and in the assay on MDA-MB-231 breast was greater than 100 µM throughout. Further, the TGI with MDA-N, in the assay on OVCAR-3 ovarian, in the assay with OVCAR-8 ovarian, in the assay with SF-268 CNS, in the assay with SK-MEL-2 melanoma and in the assay with SK-OV-3 ovarian was greater than 100 µM throughout. For the same compound, the TGI in the assay on U251 CNS and in the assay with UO-31 renal was greater than 100 µM in each case.
As to `O=C1CC(CC(O)C(O)CO)CC(=O)N1` (configuration not stated), the TGI in the assay on CAKI-1 renal, in the assay on CCRF-CEM leukemia, in the assay with HCT-116 colon, in the assay on HL-60(TB) leukemia, in the assay with HOP-62 NSCLC and with HOP-92 NSCLC was greater than 100 µM each time. In addition, the TGI with KM12 colon, in the assay with MDA-MB-231 breast, in the assay on MDA-N, in the assay on OVCAR-3 ovarian, in the assay on OVCAR-8 ovarian and in the assay with SF-268 CNS was greater than 100 µM in each case. For the same compound, the TGI with U251 CNS and with UO-31 renal was greater than 100 µM in each case.
For `CC1(C)C2CCC1(C)C(NC(=O)CCN1CCOCC1)C2` (configuration not stated), the TGI in the assay with CAKI-1 renal, in the assay with CCRF-CEM leukemia, with HCT-116 colon, with HL-60(TB) leukemia, in the assay with HOP-62 NSCLC and in the assay with HOP-92 NSCLC was greater than 100 µM each time. Besides, the TGI with KM12 colon, with MDA-MB-231 breast, in the assay with MDA-N, with OVCAR-3 ovarian, with OVCAR-8 ovarian and with SF-268 CNS was greater than 100 µM in each case. Further, the TGI with SK-OV-3 ovarian, in the assay on U251 CNS and in the assay with UO-31 renal was greater than 100 µM throughout.
In the case of `COC(=O)[C@@H]1C[C@H]2[C@H](c3ccccc3Br)[C@@H](OC(C)=O)[C@@H](OCc3ccccc3)ON2O1`, the concentration for total growth inhibition (TGI) in the assay with CAKI-1 renal, in the assay on CCRF-CEM leukemia, in the assay on HCT-116 colon, in the assay with HOP-62 NSCLC, with KM12 colon and in the assay with MDA-MB-231 breast was greater than 100 µM in each case. Further, the TGI in the assay with MDA-N, in the assay on OVCAR-3 ovarian, with OVCAR-8 ovarian, with SF-268 CNS, in the assay on SK-MEL-2 melanoma and in the assay on SK-OV-3 ovarian was greater than 100 µM throughout. In addition, the TGI in the assay on U251 CNS and in the assay with UO-31 renal was greater than 100 µM each time.
Take `COc1ccc(-n2c(C)nc3ccc(N=Cc4ccccc4)cc3c2=O)cc1`: the TGI with CAKI-1 renal, with HCT-116 colon, in the assay on HL-60(TB) leukemia, in the assay with HOP-62 NSCLC, with KM12 colon and with MDA-MB-231 breast was greater than 100 µM each time. Also, the TGI in the assay on MDA-N, in the assay on OVCAR-3 ovarian, in the assay with OVCAR-8 ovarian, in the assay with SF-268 CNS, in the assay on U251 CNS and in the assay with UO-31 renal was greater than 100 µM in each case.
For `O=C(CCNC(=O)OCc1ccccc1)OCCCNC(=O)OCc1ccccc1`, the TGI in the assay with CCRF-CEM leukemia, in the assay on HCT-116 colon, in the assay with HL-60(TB) leukemia, with HOP-62 NSCLC, with HOP-92 NSCLC and in the assay on KM12 colon was greater than 100 µM each time. For the same compound, the TGI in the assay on MDA-MB-231 breast, in the assay with MDA-N, in the assay on OVCAR-3 ovarian, with OVCAR-8 ovarian, with SF-268 CNS and in the assay with SK-OV-3 ovarian was greater than 100 µM in each case. Moreover, the TGI with U251 CNS and in the assay on UO-31 renal was greater than 100 µM throughout.
For `COc1cccc2c1[C@H](OC)[C@]13O[C@@]1(C2=O)[C@H](O)[C@H](C)[C@@](O)(C(=O)[C@@H]1O[C@H]1C)[C@@H]3O`, the TGI in the assay on CAKI-1 renal was 0.88 µM; with CCRF-CEM leukemia it was 0.555 µM; with HOP-62 NSCLC it was 1.59 µM; in the assay with HOP-92 NSCLC, 0.723 µM; in the assay on KM12 colon it was greater than 36.5 µM; in the assay with MDA-MB-231 breast, 0.977 µM. Further, the TGI in the assay with MDA-N came out at 0.768 µM; in the assay with OVCAR-3 ovarian, 1.96 µM; in the assay on OVCAR-8 ovarian it was 0.61 µM; with SF-268 CNS, 1.22 µM; in the assay on SK-MEL-2 melanoma, 0.384 µM; in the assay on SK-OV-3 ovarian, 1.47 µM. Besides, the TGI with U251 CNS was found to be 3.1 µM; with UO-31 renal it was 0.647 µM.
In the case of `C[n+]1ccccc1/C=C/c1ccc2c(c1)OCO2`, the TGI in the assay on CAKI-1 renal, in the assay with CCRF-CEM leukemia, in the assay on HCT-116 colon, with HL-60(TB) leukemia, in the assay on HOP-62 NSCLC and in the assay with KM12 colon was greater than 10 µM in each case. Moreover, the TGI in the assay with MDA-MB-231 breast, in the assay with MDA-N, in the assay with OVCAR-3 ovarian, with OVCAR-8 ovarian, in the assay on SF-268 CNS and in the assay with SK-MEL-2 melanoma was greater than 10 µM each time. The TGI in the assay with SK-OV-3 ovarian and in the assay on U251 CNS was greater than 10 µM each time.
